Where “and” joins values, the source holds several entries; their conditions need not be identical. Equal values may be shown once. Read-outs that look alike come from different tables or passages of the source.
Assays:
rat α1β1δε nAChR = biological target: T1, rat α1β1δε nAChR (Rattus norvegicus, UniProt P09660+P25108+P25109+P25110); test: Ca2+ flux (FLIPR) agonist/antagonist assay; assay type: cell-based
T1 construct: expressed in transfected cells; host or cells: HEK293 (made by Bristol-Myers Squibb)

HEK293/Human α7 nAChR = HEK293/Human α7 nAChR (Homo sapiens, UniProt P36544); test: [3H]-A-585539 filtration binding; parameters: expressed in transfected cells
Rat Brain α7 nAChR = Rat Brain α7 nAChR (Rattus norvegicus, UniProt Q05941); test: [3H]-A-585539 filtration binding
rat α3β4 nAChR = biological target: T2, rat α3β4 nAChR (Rattus norvegicus, UniProt P04757+P12392); test: Ca2+ flux (FLIPR) agonist/antagonist assay; assay type: cell-based
T2 construct: expressed in transfected cells; host or cells: HEK293 (made by Bristol-Myers Squibb)

rat α4β2 nAChR = biological target: T3, rat α4β2 nAChR (Rattus norvegicus, UniProt P09483+P12390); test: Ca2+ flux (FLIPR) agonist/antagonist assay; assay type: cell-based
T3 construct: expressed in transfected cells; host or cells: HEK293 (made by Bristol-Myers Squibb)

HEK293/Human 5-HT3A = biological target: T4, HEK293/Human 5-HT3A (Homo sapiens, UniProt P46098); test: Ca2+ flux (FLIPR) 5-HT3A antagonist assay; assay type: cell-based
T4 construct: expressed in transfected cells; host or cells: HEK293 (made by Bristol-Myers Squibb)
T4 sequence (P46098 24-478): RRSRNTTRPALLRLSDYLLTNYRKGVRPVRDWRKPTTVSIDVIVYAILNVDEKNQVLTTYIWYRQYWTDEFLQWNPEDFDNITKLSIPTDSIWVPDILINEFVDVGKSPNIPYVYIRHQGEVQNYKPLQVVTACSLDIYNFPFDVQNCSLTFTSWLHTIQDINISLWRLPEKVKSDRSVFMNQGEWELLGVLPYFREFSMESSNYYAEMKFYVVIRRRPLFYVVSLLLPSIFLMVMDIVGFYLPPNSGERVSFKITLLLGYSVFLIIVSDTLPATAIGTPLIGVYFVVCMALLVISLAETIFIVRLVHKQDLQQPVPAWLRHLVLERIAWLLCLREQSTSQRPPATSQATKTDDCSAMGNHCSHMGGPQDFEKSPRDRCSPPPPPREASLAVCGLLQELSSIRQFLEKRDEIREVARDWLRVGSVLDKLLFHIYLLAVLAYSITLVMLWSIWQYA
Description: Functional activity was examined using Ca^2+-sensitive, dye-based, microfluorometric assays read on the FLIPR Tetra plate reader platform (Molecular Devices, CA, USA). Cells were plated in 384-well black, clear-bottomed Greiner poly-D-lysine coated plates at a density of ~25 K cells/well and incubated at 29°C for 48 h. Prior to assay, media contents were removed and cells incubated in assay buffer containing 5μM final Fluo-4 dye for 90 min. For nAChR assays, the dye-loading buffer was HBSS (#14175 Life Technologies) supplemented with 20 mM HEPES, 0.5 mM CaCl2, 1 mM MgCl2 and 10 μM atropine (final concentration). Test compounds were solubilized in DMSO and serially diluted in NUNC 384-well plates prior to addition of assay buffer (5.3 mM KCl + 140 mM NaCl + 20 mM Hepes + 25 mM CaCl2 + 1 mM MgCl2 + 10 μM atropine final concentration). Compounds diluted in assay buffer were added to the assay plate by the FLIPR and read for approximately 2 min. […] For 5-HT3A antagonist studies, the dye loading and compound diluent buffer was HBSS (#14025 Life Technologies) supplemented with 20 mM HEPES (final concentration) and the concentration of 5-HT used in the assay was 2 μM. Offline transformation of concentration response data was done using a 4 parameter logistic fit using a Bristol-Myers Squibb proprietary informatics software suite.

[1] = biological target: T5, HEK293/human α7 nAChR cells (Homo sapiens, UniProt P36544); test: Whole cell voltage clamp electrophysiology; assay type: cell-based; details: for Net Charge (Current Area) normalized to 300 µM ACh / Peak Current normalized to 3 mM ACh: individual cells
T5 construct: expressed in transfected cells
Description: (§1) Whole-cell voltage clamp studies were conducted on HEK293/rat α7 or HEK293/human α7 nAChR cells. […] Atropine (1 μM) was included in the bathing solution. […] Cells were voltage clamped at a holding potential of -90 mV. Using the Dynaflow microfluidic perfusion system (Cellectricon; flow 26 μl/min) responses to a 300 ms application of ACh or α7 nAChR agonists were measured. Currents were filtered at 2 kHz and sampled at 10 kHz using an EPC-9 amplifier and HEKA Pulse/Patchmaster software. […] The peak current amplitude and net charge crossing the membrane (i.e. the area under the current response curve) induced by agonist application were measured using Clampfit (pClamp Suite) and normalized to the maximal response induced by ACh (3 mM ACh for peak current amplitude and 300 μM ACh for net charge).

human 5-HT3A receptors = biological target: T6, human 5-HT3A receptors (Homo sapiens, UniProt P46098); test: biochemical
T6 sequence (P46098 24-478): T4 sequence (P46098 24-478)

α7 nAChR = details: read-out: reported Ki; cited from earlier work
[2] = biological target: T7, HEK293/rat α7 nAChR cells (Rattus norvegicus, UniProt Q05941); test: Whole cell voltage clamp electrophysiology; assay type: cell-based; details: for Net Charge (Current Area) normalized to 300 µM ACh / Peak Current normalized to 3 mM ACh: individual cells
T7 construct: expressed in transfected cells
Description: as §1

[3] = FLIPR agonist mode, read-out: agonist EC50 at α3β4 nAChR
[4] = FLIPR agonist mode, read-out: agonist EC50 at α1β1δε nAChR
[5] = FLIPR agonist mode, read-out: agonist EC50 at α4β2 nAChR
[6] = HEK293/Human 5-HT3A Mean ± SD IC50, Ca2+ flux (FLIPR), antagonism of 2 μM 5-HT
[7] = Human 5-HT3A IC50 values (individual), FLIPR, individual determinations
[8] = Ca2+ flux (FLIPR), antagonism of 2 μM 5-HT, read-out: HEK293/Human 5-HT3A Mean ± SD IC50
[9] = FLIPR, individual determinations, read-out: Human 5-HT3A IC50 values (individual)

T1 sequence (P25108 21-457): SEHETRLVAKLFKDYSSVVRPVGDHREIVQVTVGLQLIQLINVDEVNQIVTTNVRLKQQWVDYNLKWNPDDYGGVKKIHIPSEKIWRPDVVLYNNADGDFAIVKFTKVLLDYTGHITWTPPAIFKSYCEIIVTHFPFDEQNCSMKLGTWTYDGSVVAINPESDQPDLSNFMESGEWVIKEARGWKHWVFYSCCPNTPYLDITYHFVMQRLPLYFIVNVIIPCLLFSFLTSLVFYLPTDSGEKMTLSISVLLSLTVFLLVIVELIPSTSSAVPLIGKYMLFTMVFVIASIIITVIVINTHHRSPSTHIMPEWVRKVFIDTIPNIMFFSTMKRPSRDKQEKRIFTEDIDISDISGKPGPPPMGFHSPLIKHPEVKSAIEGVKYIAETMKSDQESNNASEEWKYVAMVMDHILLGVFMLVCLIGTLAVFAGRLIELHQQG
T1 sequence (P25109 24-501): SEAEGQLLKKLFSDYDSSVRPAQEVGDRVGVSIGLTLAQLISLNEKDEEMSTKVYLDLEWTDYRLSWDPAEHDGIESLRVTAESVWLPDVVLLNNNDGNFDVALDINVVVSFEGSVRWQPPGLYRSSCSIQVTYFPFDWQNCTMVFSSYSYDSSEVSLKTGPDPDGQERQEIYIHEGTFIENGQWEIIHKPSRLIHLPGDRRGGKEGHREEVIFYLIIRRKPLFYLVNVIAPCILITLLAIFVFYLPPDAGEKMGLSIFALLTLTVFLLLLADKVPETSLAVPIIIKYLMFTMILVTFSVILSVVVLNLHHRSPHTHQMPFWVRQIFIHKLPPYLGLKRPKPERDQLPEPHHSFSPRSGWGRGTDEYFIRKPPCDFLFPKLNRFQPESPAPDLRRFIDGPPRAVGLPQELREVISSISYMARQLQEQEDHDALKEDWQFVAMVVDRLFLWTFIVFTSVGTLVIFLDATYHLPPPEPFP
T1 sequence (P25110 22-517): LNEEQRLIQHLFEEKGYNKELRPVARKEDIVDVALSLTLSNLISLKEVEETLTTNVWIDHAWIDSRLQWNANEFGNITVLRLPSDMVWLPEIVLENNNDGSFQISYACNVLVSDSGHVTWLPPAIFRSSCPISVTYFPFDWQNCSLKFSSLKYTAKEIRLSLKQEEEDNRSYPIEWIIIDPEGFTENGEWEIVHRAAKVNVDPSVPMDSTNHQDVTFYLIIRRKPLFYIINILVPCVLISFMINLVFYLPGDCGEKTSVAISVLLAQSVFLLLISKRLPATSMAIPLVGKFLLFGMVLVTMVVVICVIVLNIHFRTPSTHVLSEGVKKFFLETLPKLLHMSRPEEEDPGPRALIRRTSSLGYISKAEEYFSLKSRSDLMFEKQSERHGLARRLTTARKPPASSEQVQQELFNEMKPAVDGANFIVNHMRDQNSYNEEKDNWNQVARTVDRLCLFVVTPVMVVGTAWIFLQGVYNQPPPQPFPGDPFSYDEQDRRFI
T1 sequence (P09660 21-494): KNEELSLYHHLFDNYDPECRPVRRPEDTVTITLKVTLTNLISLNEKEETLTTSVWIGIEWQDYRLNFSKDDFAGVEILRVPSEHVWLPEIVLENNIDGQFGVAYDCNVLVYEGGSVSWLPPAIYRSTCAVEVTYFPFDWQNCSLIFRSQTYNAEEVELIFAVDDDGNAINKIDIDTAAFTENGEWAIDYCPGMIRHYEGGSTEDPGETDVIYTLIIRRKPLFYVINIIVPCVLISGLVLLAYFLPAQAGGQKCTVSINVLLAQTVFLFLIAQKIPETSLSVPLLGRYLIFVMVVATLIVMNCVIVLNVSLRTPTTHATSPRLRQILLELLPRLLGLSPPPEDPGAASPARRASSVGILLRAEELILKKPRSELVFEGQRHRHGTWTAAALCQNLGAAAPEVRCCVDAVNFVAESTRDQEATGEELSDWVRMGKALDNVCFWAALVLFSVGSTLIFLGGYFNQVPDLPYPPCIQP
Chain of HEK293/Human α7 nAChR (P36544 23-502): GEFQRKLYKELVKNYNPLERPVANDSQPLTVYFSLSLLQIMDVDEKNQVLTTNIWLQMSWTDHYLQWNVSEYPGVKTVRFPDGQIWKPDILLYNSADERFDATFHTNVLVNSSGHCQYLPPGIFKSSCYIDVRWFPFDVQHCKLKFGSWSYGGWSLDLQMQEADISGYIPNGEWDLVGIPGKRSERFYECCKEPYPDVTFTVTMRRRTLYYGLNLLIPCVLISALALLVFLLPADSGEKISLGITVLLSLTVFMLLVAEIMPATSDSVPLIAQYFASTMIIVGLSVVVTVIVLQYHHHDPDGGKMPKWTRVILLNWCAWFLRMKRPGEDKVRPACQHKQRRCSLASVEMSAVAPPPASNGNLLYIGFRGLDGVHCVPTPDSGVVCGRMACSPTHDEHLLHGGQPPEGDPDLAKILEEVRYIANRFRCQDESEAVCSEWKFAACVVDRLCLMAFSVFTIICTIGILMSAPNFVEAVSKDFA
T5 sequence (P36544 23-502): as above
T2 sequence (P04757 26-499): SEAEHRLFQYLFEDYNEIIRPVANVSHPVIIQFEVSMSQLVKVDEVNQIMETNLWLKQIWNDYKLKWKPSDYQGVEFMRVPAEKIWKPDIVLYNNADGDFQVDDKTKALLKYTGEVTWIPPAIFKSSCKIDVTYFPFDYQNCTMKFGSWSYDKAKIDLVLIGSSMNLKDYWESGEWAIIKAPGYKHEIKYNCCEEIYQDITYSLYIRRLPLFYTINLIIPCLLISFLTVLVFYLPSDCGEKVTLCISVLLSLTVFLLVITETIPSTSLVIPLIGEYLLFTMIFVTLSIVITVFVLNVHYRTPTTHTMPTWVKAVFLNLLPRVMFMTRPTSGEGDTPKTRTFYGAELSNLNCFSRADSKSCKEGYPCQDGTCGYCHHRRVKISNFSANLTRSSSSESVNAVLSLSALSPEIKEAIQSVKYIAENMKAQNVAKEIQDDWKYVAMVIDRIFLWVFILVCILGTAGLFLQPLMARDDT
T2 sequence (P12392 21-495): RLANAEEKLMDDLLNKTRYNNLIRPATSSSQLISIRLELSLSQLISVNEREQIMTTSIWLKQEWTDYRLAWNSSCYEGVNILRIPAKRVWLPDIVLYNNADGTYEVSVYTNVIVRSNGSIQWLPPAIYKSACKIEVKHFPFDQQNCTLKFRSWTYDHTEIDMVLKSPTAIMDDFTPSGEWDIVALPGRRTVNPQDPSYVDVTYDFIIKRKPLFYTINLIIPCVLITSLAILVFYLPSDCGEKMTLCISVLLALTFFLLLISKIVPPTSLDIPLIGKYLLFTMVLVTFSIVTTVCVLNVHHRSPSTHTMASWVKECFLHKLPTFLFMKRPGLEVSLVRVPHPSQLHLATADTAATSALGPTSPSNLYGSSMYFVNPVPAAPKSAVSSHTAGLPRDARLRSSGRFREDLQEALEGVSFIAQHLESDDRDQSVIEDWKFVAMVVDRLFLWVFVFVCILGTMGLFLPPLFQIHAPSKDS
T7 sequence (Q05941 23-502): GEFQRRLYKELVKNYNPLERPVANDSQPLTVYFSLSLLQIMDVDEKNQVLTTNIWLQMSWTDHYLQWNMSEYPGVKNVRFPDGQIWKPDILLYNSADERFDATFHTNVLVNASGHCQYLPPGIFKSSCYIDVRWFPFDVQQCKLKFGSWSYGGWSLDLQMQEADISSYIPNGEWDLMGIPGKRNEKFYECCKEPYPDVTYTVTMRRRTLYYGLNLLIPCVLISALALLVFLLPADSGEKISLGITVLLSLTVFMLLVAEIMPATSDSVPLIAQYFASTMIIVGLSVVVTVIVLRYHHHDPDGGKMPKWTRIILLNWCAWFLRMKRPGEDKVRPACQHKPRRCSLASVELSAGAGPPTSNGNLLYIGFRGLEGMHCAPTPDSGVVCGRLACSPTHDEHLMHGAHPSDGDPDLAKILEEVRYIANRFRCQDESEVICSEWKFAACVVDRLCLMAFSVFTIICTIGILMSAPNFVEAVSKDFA
Chain of Rat Brain α7 nAChR (Q05941 23-502): as above
T3 sequence (P09483 31-630): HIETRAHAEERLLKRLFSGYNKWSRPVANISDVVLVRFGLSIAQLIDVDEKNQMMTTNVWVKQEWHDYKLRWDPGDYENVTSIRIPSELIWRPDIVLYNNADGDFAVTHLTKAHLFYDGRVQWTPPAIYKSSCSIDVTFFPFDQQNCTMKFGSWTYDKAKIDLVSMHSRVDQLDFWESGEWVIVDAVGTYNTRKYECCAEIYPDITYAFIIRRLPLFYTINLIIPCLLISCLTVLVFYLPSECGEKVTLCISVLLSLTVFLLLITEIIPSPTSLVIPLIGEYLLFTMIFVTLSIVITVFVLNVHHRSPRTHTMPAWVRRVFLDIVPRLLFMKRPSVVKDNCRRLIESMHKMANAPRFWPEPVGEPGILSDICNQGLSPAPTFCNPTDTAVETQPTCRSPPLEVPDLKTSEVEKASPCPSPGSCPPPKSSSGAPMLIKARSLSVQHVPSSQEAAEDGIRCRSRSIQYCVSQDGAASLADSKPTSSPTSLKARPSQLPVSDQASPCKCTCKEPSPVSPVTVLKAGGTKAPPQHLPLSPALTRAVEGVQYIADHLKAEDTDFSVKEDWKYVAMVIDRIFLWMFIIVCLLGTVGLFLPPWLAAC
T3 sequence (P12390 25-500): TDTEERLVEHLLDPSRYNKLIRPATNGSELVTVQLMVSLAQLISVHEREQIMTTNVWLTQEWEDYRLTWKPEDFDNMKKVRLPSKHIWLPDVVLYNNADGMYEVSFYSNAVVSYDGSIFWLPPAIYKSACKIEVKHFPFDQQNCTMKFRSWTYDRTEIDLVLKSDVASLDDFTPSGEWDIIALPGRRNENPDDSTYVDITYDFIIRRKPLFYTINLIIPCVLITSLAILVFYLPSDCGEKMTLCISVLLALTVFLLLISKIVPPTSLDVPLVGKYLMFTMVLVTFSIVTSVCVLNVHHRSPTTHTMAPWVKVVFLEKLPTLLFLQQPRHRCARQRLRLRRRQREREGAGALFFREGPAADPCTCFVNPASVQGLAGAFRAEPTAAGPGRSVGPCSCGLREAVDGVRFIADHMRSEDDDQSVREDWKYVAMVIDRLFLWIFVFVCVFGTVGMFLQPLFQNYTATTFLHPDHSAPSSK

## Clc1ccc(C2CC3CCC2N3)cn1 (racemic) [Epibatidine, (±)epibatidine]
Rat α1β1δε nAChR
  EC50: > 1000 nM
HEK293/Human α7 nAChR; HEK293/Human α7 nAChR Mean ± SD Ki, displacement of [3H]-A-585539
  Ki: 10.5 ± 1.58 nM
HEK293/Human α7 nAChR; HEK293/human α7 nAChR Ki (individual), individual determinations
  Ki: 9.7 nM (2×) and 12.9 nM and 9.8 nM

## CN1CC2CN(c3ccc(-c4ccccc4)nn3)CC2C1.Cl.Cl (centres unmarked) [A-582941, octahydro-2-methyl-5-(6-phenyl-3-pyridazinyl)-pyrrolo[3,4-c]pyrrole dihydrochloride]
Rat Brain α7 nAChR; Rat Brain α7 nAChR Ki (individual)
  Ki: 23 nM and 20.3 nM
Rat Brain α7 nAChR; Rat Brain α7 nAChR Mean ± SD Ki
  Ki: 21.7 nM
Rat α3β4 nAChR; [3]
  EC50: > 100000 nM
Rat α1β1δε nAChR; [4]
  EC50: > 100000 nM
Rat α4β2 nAChR; [5]
  EC50: > 100000 nM
HEK293/Human α7 nAChR; HEK293/Human α7 nAChR Mean ± SD Ki
  Ki: 82.6 nM
HEK293/Human α7 nAChR; HEK293/human α7 nAChR Ki (individual)
  Ki: 99 nM and 72.5 nM and 76.3 nM
HEK293/Human 5-HT3A; FLIPR
  Ratio (5-HT3A IC50 / α7 nAChR EC50; functional selectivity): 1.1
HEK293/Human 5-HT3A; [6]
  IC50: 102 ± 86 nM
HEK293/Human 5-HT3A; [7]
  IC50: 73 nM and 75 nM and 76 nM and 109 nM and 47 nM and 79 nM and 59 nM and 86 nM and 344 nM and 72 nM

## O=C(N[C@H]1CN2CCC1CC2)c1cc2cccc(Cl)c2s1 [EVP-6124, (R)-7-chloro-N-(quinuclidin-3-yl)benzo[b]thiophene-2-carboxamide, reference compound]
[1]; 0.03 µM
  Net Charge (Current Area) normalized to 300 µM ACh: 0.1633 and 0.2064 and 0.1153 and 0.1342
  Peak Current normalized to 3 mM ACh: 0.0231 and 0.03032 and 0.02328 and 0.01316
[1]; EVP-6124 series 0.1 µM
  Net Charge (Current Area) normalized to 300 µM ACh: 0.8405 and 1.081 and 0.8479 and 0.8723
  Peak Current normalized to 3 mM ACh: 0.0485 and 0.06704 and 0.0971 and 0.0413
[1]; EVP-6124 series 0.3 µM
  Net Charge (Current Area) normalized to 300 µM ACh: 1.201 and 1.302 and 1.445 and 1.418
  Peak Current normalized to 3 mM ACh: 0.1072 and 0.154 and 0.07666 and 0.07157
[1]; EVP-6124 series 1 µM
  Net Charge (Current Area) normalized to 300 µM ACh: 1.414 and 1.499 and 1.608 and 1.442
  Peak Current normalized to 3 mM ACh: 0.127 and 0.1447 and 0.2547 and 0.1421
[1]; EVP-6124 series 3 µM
  Net Charge (Current Area) normalized to 300 µM ACh: 1.22 and 1.197 and 1.304 and 1.07
  Peak Current normalized to 3 mM ACh: 0.1877 and 0.2441 and 0.3832 and 0.2558
[1]; EVP-6124 series 10 µM
  Net Charge (Current Area) normalized to 300 µM ACh: 0.349 and 0.4055 and 0.3939 and 0.327
  Peak Current normalized to 3 mM ACh: 0.2438 and 0.2654 and 0.4627 and 0.3034
[1]; Human, normalized to 300 μM ACh
  Mean ± SEM Net Charge Ymax: 1.36 ± 0.09
[1]; Human, normalized to 3 mM ACh
  Mean ± SEM Peak Current Ymaxobs @ 10 μM: 0.32 ± 0.05
[1]; Human, read-out: Mean ± SEM Net Charge EC50
  EC50: 70 ± 20 nM
Rat α3β4 nAChR; [3]
  EC50: > 100000 nM
Rat α1β1δε nAChR; [4]
  EC50: > 100000 nM
Rat α4β2 nAChR; [5]
  EC50: > 100000 nM
Human 5-HT3A receptors
  Ki: 2.5 nM
HEK293/Human α7 nAChR; displacement of [3H]-A-585539, read-out: HEK293/Human α7 nAChR Mean ± SD Ki
  Ki: 3 ± 1.13 nM
HEK293/Human α7 nAChR; individual determinations, read-out: HEK293/human α7 nAChR Ki (individual)
  Ki: 2.2 nM and 3.8 nM
HEK293/Human 5-HT3A; [8]
  IC50: 4 ± 2.1 nM
HEK293/Human 5-HT3A; [9]
  IC50: 6 nM and 3 nM and 1 nM and 5 nM
α7 nAChR
  Ki: 10 nM

## Cl.O=C(N[C@H]1CN2CCC1CC2)c1ccc(Cl)cc1 [PNU-282987, N-(3R)-1-azabicyclo[2.2.2]oct-3-yl-4-chloro-benzamide hydrochloride]
Rat α3β4 nAChR; [3]
  EC50: > 100000 nM
Rat α1β1δε nAChR; [4]
  EC50: > 100000 nM
Rat α4β2 nAChR; [5]
  EC50: > 100000 nM
HEK293/Human 5-HT3A; FLIPR
  Ratio (5-HT3A IC50 / α7 nAChR EC50; functional selectivity): 264
HEK293/Human 5-HT3A; [6]
  IC50: 24900 nM
HEK293/Human 5-HT3A; [7]
  IC50: 32100 nM and 23600 nM and 6350 nM and 38400 nM and 24100 nM

## O=C(N[C@@H]1C2CCN(CC2)[C@H]1Cc1cccnc1)c1cc2ccccc2o1 [TC-5619, (2S,3R)-N-[2-(pyridin-3-ylmethyl)-1-azabicyclo[2.2.2]oct-3-yl]benzo[b]furan-2-carboxamide]
Rat α3β4 nAChR
  EC50: > 100000 nM
[2]; 0.001 µM
  Net Charge (Current Area) normalized to 300 µM ACh: 0.01291 and 0.1795 and 0.008199
  Peak Current normalized to 3 mM ACh: 0.003543 and 0.01162 and 0.003662
[2]; 0.003 µM
  Net Charge (Current Area) normalized to 300 µM ACh: -0.00013 and 0.03241 and 0.001885
  Peak Current normalized to 3 mM ACh: 0.003116 and 0.008701 and 0.005453
[2]; 0.01 µM
  Net Charge (Current Area) normalized to 300 µM ACh: 0.000016 and 0.002188 and -0.00959
  Peak Current normalized to 3 mM ACh: 0.006073 and 0.007536 and 0.009875
[2]; 0.03 µM
  Net Charge (Current Area) normalized to 300 µM ACh: 0.1492 and 0.1468 and 0.2028
  Peak Current normalized to 3 mM ACh: 0.02004 and 0.01567 and 0.02139
[2]; Rat, normalized to 300 μM ACh
  Mean ± SEM Net Charge Ymax: 1.26 ± 0.02
[2]; Rat, normalized to 3 mM ACh
  Mean ± SEM Peak Current Ymaxobs @ 10 μM: 0.55 ± 0.06
[2]; TC-5619 series 0.1 µM
  Net Charge (Current Area) normalized to 300 µM ACh: 0.6879 and 0.7239 and 0.8481
  Peak Current normalized to 3 mM ACh: 0.05408 and 0.04485 and 0.05183
[2]; TC-5619 series 0.3 µM
  Net Charge (Current Area) normalized to 300 µM ACh: 1.093 and 1.107 and 1.105
  Peak Current normalized to 3 mM ACh: 0.1599 and 0.1241 and 0.1149
[2]; TC-5619 series 1 µM
  Net Charge (Current Area) normalized to 300 µM ACh: 1.242 and 1.143 and 1.297
  Peak Current normalized to 3 mM ACh: 0.276 and 0.2576 and 0.2679
[2]; TC-5619 series 3 µM
  Net Charge (Current Area) normalized to 300 µM ACh: 1.234 and 1.271 and 1.312
  Peak Current normalized to 3 mM ACh: 0.4166 and 0.4279 and 0.4555
[2]; TC-5619 series 10 µM
  Net Charge (Current Area) normalized to 300 µM ACh: 1.226 and 1.317 and 1.306
  Peak Current normalized to 3 mM ACh: 0.4847 and 0.4851 and 0.6732
Rat α1β1δε nAChR
  EC50: > 100000 nM
Rat α4β2 nAChR
  EC50: > 100000 nM
Human 5-HT3A receptors; human 5-HT3A Ki, displacement of [3H]-granisetron
  Ki: > 10000 nM
HEK293/Human 5-HT3A; [8]
  IC50: > 100000 nM
HEK293/Human 5-HT3A; [9]
  IC50: > 100000 nM
α7 nAChR
  Ki: 1 nM

## C[N+]1(C)CC2CC1CN2c1ccc(-c2ccccc2)nn1 (centres unmarked) [[^3H]-A-585539, ^3H-2,2-dimethyl-5-(6-phenyl-3-pyridazinyl)-5-aza-2-azoniabicyclo[2.2.1]heptane iodide]
HEK293/Human α7 nAChR; recombinant human α7 nAChR, n = 2, read-out: mean Kd, saturation binding
  Kd: 0.656 nM

Reference: article PMC4965148 (PLoS ONE, 2016)
